Measured values as given in patent publication US9645128B2, “Substituted imidazo[1,2-A]pyrazines for measuring a transcription activity” (JNC CORPORATION, priority 2009, dated 2017).

Legend:
[1] = molecular target: T1, 19 kDa protein of Oplophorus luciferase (Oplophorus gracilirostris, UniProt Q9GV45); experiment: Substrate specificity, luminescence activity and emission spectra of the 19 kDa protein of Oplophorus luciferase; type: biochemical, Oplophorus gracilorostris; settings: for Maximum emission wavelength λmax (nm) / Luminescence activity and/or capacity compared to known h-CTZ / Luminescence capacity 10 secs. (%) / Luminescence activity Imax (%): Oplophorus luciferase; for Maximum emission wavelength λmax (nm): 22 to 25° C.; for Luminescence activity and/or capacity compared to known h-CTZ / Quality as luminescence substrate for Oplophorus luciferase: TABLE 2; for Luminescence capacity 10 secs. (%): emission integrated for 10 seconds; for Luminescence capacity 10 secs. (%) / Luminescence activity Imax (%): coelenterazine = 100.0
T1 construct: made in house

Renilla luciferase = molecular target: T2, Renilla luciferase (Renilla reniformis, UniProt P27652); experiment: Substrate specificity, luminescence activity and emission spectra of Renilla luciferase; type: biochemical; settings: for Maximum emission wavelength λmax (nm) / Luminescence activity Imax (%) / Luminescence capacity 10 secs. (%): Renilla luciferase; for Maximum emission wavelength λmax (nm): 22 to 25° C.; for Luminescence activity Imax (%) / Luminescence capacity 10 secs. (%): coelenterazine = 100.0; for Ability to act as substrate for Renilla luciferase: TABLE 4
T2 construct: made in house
T2 sequence (P27652 1-311): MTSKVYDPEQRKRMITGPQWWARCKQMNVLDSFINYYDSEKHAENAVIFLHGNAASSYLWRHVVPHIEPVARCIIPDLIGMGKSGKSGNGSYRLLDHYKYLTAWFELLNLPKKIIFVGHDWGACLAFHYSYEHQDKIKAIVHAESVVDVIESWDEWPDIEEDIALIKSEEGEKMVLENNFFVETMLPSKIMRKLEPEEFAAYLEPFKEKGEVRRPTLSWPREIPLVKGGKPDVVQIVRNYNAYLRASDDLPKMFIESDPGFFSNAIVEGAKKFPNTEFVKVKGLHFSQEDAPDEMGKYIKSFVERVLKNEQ
Source text: Res. Commun. (1997) 233: 349-353, which was provided for use.

recombinant apoaequorin [2] = molecular target: T3, recombinant apoaequorin (Aequorea victoria, UniProt P07164); experiment: Luminescence patterns and half decay time of semi-synthetic aequorins; type: biochemical; design: purchased Chisso Corporation; settings: for Half decay time sec.: semi-synthetic aequorin, time to reach half of the maximum luminescence intensity
Protocol: The dilution was dispensed into a 96-well microplate (Nunc #236108) in 5 μl/well. […] The luminescence patterns for 60 seconds were measured to determine the half decay time of luminescence (time period to reach the half of the maximum luminescence intensity).

recombinant apoaequorin [3] = molecular target: T3, recombinant apoaequorin; experiment: Calcium standard curve with semi-synthetic aequorins; type: biochemical; design: purchased Chisso Corporation; settings: Imax versus 10^-3 M to 10^-8 M calcium
Protocol: The dilution series was prepared by the serial process above to prepare standard calcium solution of 10^−3 M to 10^−8 M.
The semi-synthetic aequorin obtained was concentrated using Amicon Ultra-4 (manufactured by Millipore, molecular weight cut off, 10.000).
This semi-synthetic aequorin solution (2.5 mg/ml) was diluted with 20 mM Tris-HCl (pH 7.6) containing 0.1% BSA (manufactured by Sigma), 0.01 mM EDTA and 150 mM NaCl.
The calcium standard solution prepared as described above was dispensed into a 96-well microplate (Nunc #236108) in 50 μl/well, and the semi-synthetic aequorin solution diluted was injected in […]. The luminescence intensity was measured for 60 seconds using a luminescence plate reader Centro LB960 (manufactured by Berthold) and expressed in terms of the maximum luminescence intensity (Imax). The luminescence intensity was measured for each semi-synthetic aequorin in the same fashion. Based on the maximum luminescence intensity (Imax) obtained, the calcium standard curve for each semi-synthetic aequorin was prepared.

recombinant apoaequorin [4] = molecular target: T3, recombinant apoaequorin; experiment: Emission spectra of semi-synthetic aequorins by addition of calcium ions; settings: for Emission spectra of semi-synthetic aequorins compared with known analogs (FIG. 3): compared to h-CTZ and i-CTZ; for Maximum emission wavelength λmax (nm): semi-synthetic aequorin, 22 to 25° C.
Protocol: In a quartz cell with an optical path length of 10 mm, 1 ml of 50 mM Tris-HCl (pH 7.6) containing 1 mM EDTA and 100 μl (100 μg protein) of a solution of the regenerated semi-synthetic aequorin were charged and they were mixed. Subsequently, 100 μl of 50 mM Tris-HCl (pH 7.6) containing 0.1 ml of 10 mM calcium chloride solution was added to the mixture to trigger the luminescence reaction. The spectra were measured on a spectrofluorimeter (FP-6500, manufactured by JASCO Corporation) with the excitation source turned off. The measurement conditions used were as follows: band width, 20 nm; response, 0.5 second and scan speed, 2000 nm/min at 22 to 25° C.

Gaussia luciferase = experiment: Substrate specificity, luminescence activity and emission spectra of Gaussia luciferase; settings: for Luminescence activity Imax (%) / Luminescence capacity 10 secs. (%): Gaussia luciferase, coelenterazine = 100.0
Protocol: The luminescence activity was measured for 10 seconds using a luminometer Luminescencer-PSN AB2200 (manufactured by Atto Co., Ltd.). The luminescence activity was measured 3 times and expressed as the maximum intensity (Imax) of luminescence.

recombinant apoaequorin [5] = molecular target: T3, recombinant apoaequorin; experiment: Production of semi-synthetic aequorins and measurement of luminescence activity (Imax, luminescence capacity); settings: for Ability to act as luminescence substrate for semi-synthetic aequorins (FIG. 1): regeneration 0.5 to 18 hours at 4° C.; for Luminescence activity Imax (%) / Luminescence capacity 60 sec (%): semi-synthetic aequorin, coelenterazine = 100.0; for Luminescence activity Imax (%): Ca2+-triggered, maximum intensity; for Luminescence capacity 60 sec (%): emission integrated for 60 seconds
Protocol: In order to confirm the regeneration time and regeneration efficiency from apoaequorin to the semi-synthetic aequorin, the luminescence activity was assayed at the respective points of the regeneration process (at the respective points of 0.5, 1, 1.5, 2, 3 and 18 hours from the start of regeneration).
Specifically, the luminescence activity described above was measured as follows. The luminescence reaction was started by adding 100 μl of 50 mM Tris-HCl (pH 7.6) containing 50 mM calcium chloride solution to 2 μl of a solution of the semi-synthetic aequorin at each regeneration process. The luminescence activity was measured for 10 seconds with a luminometer Luminescencer-PSN AB2200 (manufactured by Atto Co., Ltd.). The measured values were represented as the maximum intensity (Imax) of luminescence. The emission for 60 seconds was integrated, which was made a luminescence capacity.

T3 sequence (P07164 other isoform, or with tags, fused parts or gaps with the stated changes): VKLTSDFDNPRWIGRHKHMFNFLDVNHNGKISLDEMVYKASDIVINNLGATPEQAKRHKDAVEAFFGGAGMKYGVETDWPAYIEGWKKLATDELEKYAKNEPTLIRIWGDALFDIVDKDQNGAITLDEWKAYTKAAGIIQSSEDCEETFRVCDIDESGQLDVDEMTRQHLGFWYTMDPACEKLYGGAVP
T1 sequence (Q9GV45 28-196): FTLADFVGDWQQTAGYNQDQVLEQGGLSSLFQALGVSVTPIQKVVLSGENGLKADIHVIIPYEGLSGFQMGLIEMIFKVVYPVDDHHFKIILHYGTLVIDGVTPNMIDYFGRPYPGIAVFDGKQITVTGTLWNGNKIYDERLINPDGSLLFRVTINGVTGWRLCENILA

Molecule: O=c1c(Cc2cccc(O)c2)nc2c(Cc3ccccc3)[nH]c(-c3ccc(O)cc3)cn1-2 [3iso-CTZ, 3-isocoelenterazine]
- Maximum emission wavelength λmax (nm) [1]: 458.0 nm
- Luminescence activity and/or capacity compared to known h-CTZ [1]: high luminescence activity and/or luminescence capacity
- Luminescence capacity 10 secs. (%) [1]: 71.8%
- Luminescence activity Imax (%) [1]: 78.2%
- Quality as luminescence substrate for Oplophorus luciferase [1]: relatively good luminescence substrates
- Maximum emission wavelength λmax (nm) (Renilla luciferase): 472.0 nm
- Luminescence activity Imax (%) (Renilla luciferase): 25.7%
- Luminescence capacity 10 secs. (%) (Renilla luciferase): 27.5%
- Ability to act as substrate for Renilla luciferase (Renilla luciferase): can be substrates for Renilla luciferase
- melting point: 160 to 162 °C (dec.)
- Half decay time sec. (recombinant apoaequorin [2]): 0.24 s
- Calcium standard curve with semi-synthetic aequorin (FIG. 4) (recombinant apoaequorin [3]): calcium standard curves can be prepared
- Emission spectra of semi-synthetic aequorins compared with known analogs (FIG. 3) (recombinant apoaequorin [4]): exhibit different emission spectra from those of known coelenterazine analogs
- Maximum emission wavelength λmax (nm) (recombinant apoaequorin [4]): 464.0 nm
- Luminescence activity Imax (%) (Gaussia luciferase): 14.3%
- Luminescence capacity 10 secs. (%) (Gaussia luciferase): 7.4%
- Quality as luminescence substrate for Gaussia luciferase (Gaussia luciferase; TABLE 3): effective luminescence substrates
- Ability to act as luminescence substrate for semi-synthetic aequorins (FIG. 1) (recombinant apoaequorin [5]): can be luminescence substrates for semi-synthetic aequorins

Molecule: Cc1cccc(Cc2nc3c(Cc4ccccc4)[nH]c(-c4ccc(O)cc4)cn-3c2=O)c1 [3me-CTZ, 3me-coelenterazine]
- Maximum emission wavelength λmax (nm) [1]: 455.5 nm
- Luminescence activity and/or capacity compared to known h-CTZ [1]: high luminescence activity and/or luminescence capacity
- Luminescence capacity 10 secs. (%) [1]: 122.8%
- Luminescence activity Imax (%) [1]: 80.0%
- Quality as luminescence substrate for Oplophorus luciferase [1]: relatively good luminescence substrates
- Maximum emission wavelength λmax (nm) (Renilla luciferase): 471.5 nm
- Luminescence activity Imax (%) (Renilla luciferase): 12.7%
- Luminescence capacity 10 secs. (%) (Renilla luciferase): 13.1%
- melting point: 142 to 145 °C (dec.)
- Half decay time sec. (recombinant apoaequorin [2]): 0.51 s
- Calcium standard curve with semi-synthetic aequorin (FIG. 4) (recombinant apoaequorin [3]): calcium standard curves can be prepared
- Emission spectra of semi-synthetic aequorins compared with known analogs (FIG. 3) (recombinant apoaequorin [4]): exhibit different emission spectra from those of known coelenterazine analogs
- Maximum emission wavelength λmax (nm) (recombinant apoaequorin [4]): 466.0 nm
- Luminescence activity Imax (%) (Gaussia luciferase): 2.6%
- Luminescence capacity 10 secs. (%) (Gaussia luciferase): 2.1%
- Ability to act as luminescence substrate for semi-synthetic aequorins (FIG. 1) (recombinant apoaequorin [5]): can be luminescence substrates for semi-synthetic aequorins

Molecule: COc1cccc(Cc2nc3c(Cc4ccccc4)[nH]c(-c4ccc(O)cc4)cn-3c2=O)c1 [3meo-CTZ, 3meo-coelenterazine]
- Maximum emission wavelength λmax (nm) [1]: 455.5 nm
- Luminescence activity and/or capacity compared to known h-CTZ [1]: high luminescence activity and/or luminescence capacity
- Luminescence capacity 10 secs. (%) [1]: 204.7%
- Luminescence activity Imax (%) [1]: 189.1%
- Quality as luminescence substrate for Oplophorus luciferase [1]: relatively good luminescence substrates
- Maximum emission wavelength λmax (nm) (Renilla luciferase): 473.5 nm
- Luminescence activity Imax (%) (Renilla luciferase): 26.0%
- Luminescence capacity 10 secs. (%) (Renilla luciferase): 31.6%
- Ability to act as substrate for Renilla luciferase (Renilla luciferase): can be substrates for Renilla luciferase
- melting point: 136 to 140 °C (dec.)
- Half decay time sec. (recombinant apoaequorin [2]): 0.52 s
- Calcium standard curve with semi-synthetic aequorin (FIG. 4) (recombinant apoaequorin [3]): calcium standard curves can be prepared
- Emission spectra of semi-synthetic aequorins compared with known analogs (FIG. 3) (recombinant apoaequorin [4]): exhibit different emission spectra from those of known coelenterazine analogs
- Maximum emission wavelength λmax (nm) (recombinant apoaequorin [4]): 466.0 nm
- Luminescence activity Imax (%) (Gaussia luciferase): 3.8%
- Luminescence capacity 10 secs. (%) (Gaussia luciferase): 3.1%
- Ability to act as luminescence substrate for semi-synthetic aequorins (FIG. 1) (recombinant apoaequorin [5]): can be luminescence substrates for semi-synthetic aequorins

Molecule: O=c1c(Cc2ccc(C(F)(F)F)cc2)nc2c(Cc3ccccc3)[nH]c(-c3ccc(O)cc3)cn1-2 [cf3-CTZ, cf3-coelenterazine]
- Maximum emission wavelength λmax (nm) [1]: 450.5 nm
- Luminescence capacity 10 secs. (%) [1]: 68.2%
- Luminescence activity Imax (%) [1]: 49.5%
- Quality as luminescence substrate for Oplophorus luciferase [1]: relatively good luminescence substrates
- Maximum emission wavelength λmax (nm) (Renilla luciferase): 474.5 nm
- Luminescence activity Imax (%) (Renilla luciferase): 0.8%
- Luminescence capacity 10 secs. (%) (Renilla luciferase): 0.8%
- melting point: 157 to 161 °C (dec.)
- Half decay time of luminescence compared with CTZ (recombinant apoaequorin [2]; semi-synthetic aequorin (FIG. 2, TABLE 1)): longer than CTZ
- Half decay time sec. (recombinant apoaequorin [2]): 5.95 s
- Calcium standard curve with semi-synthetic aequorin (FIG. 4) (recombinant apoaequorin [3]): calcium standard curves can be prepared
- Emission spectra of semi-synthetic aequorins compared with known analogs (FIG. 3) (recombinant apoaequorin [4]): exhibit different emission spectra from those of known coelenterazine analogs
- Maximum emission wavelength λmax (nm) (recombinant apoaequorin [4]): 473.5 nm
- Luminescence activity Imax (%) (Gaussia luciferase): 0.8%
- Luminescence capacity 10 secs. (%) (Gaussia luciferase): 0.7%
- Ability to act as luminescence substrate for semi-synthetic aequorins (FIG. 1) (recombinant apoaequorin [5]): can be luminescence substrates for semi-synthetic aequorins

Molecule: Oc1ccc(-c2cn3c(O)c(Cc4ccccc4)nc3c(Cc3ccccc3)n2)cc1 [h-CTZ, h-coelenterazine, reference compound]
- Maximum emission wavelength λmax (nm) [1]: 456.5 nm
- Luminescence capacity 10 secs. (%) [1]: 110.2%
- Luminescence activity Imax (%) [1]: 68.4%
- Maximum emission wavelength λmax (nm) (Renilla luciferase): 472.5 nm
- Luminescence activity Imax (%) (Renilla luciferase): 78.6%
- Luminescence capacity 10 secs. (%) (Renilla luciferase): 90.3%
- Half decay time sec. (recombinant apoaequorin [2]): 0.69 s
- Maximum emission wavelength λmax (nm) (recombinant apoaequorin [4]): 465.5 nm
- Luminescence activity Imax (%) (Gaussia luciferase): 5.8%
- Luminescence capacity 10 secs. (%) (Gaussia luciferase): 7.2%
- Luminescence activity Imax (%) (recombinant apoaequorin [5]): 87.9%
- Luminescence capacity 60 sec (%) (recombinant apoaequorin [5]): 70.1%

Molecule: coelenterazine [CTZ, reference compound]
- Maximum emission wavelength λmax (nm) [1]: 457.0 nm
- Luminescence capacity 10 secs. (%) [1]: 100.0%
- Luminescence activity Imax (%) [1]: 100.0%
- Maximum emission wavelength λmax (nm) (Renilla luciferase): 472.5 nm
- Luminescence activity Imax (%) (Renilla luciferase): 100.0%
- Luminescence capacity 10 secs. (%) (Renilla luciferase): 100.0%
- Half decay time sec. (recombinant apoaequorin [2]): 0.81 s
- Maximum emission wavelength λmax (nm) (recombinant apoaequorin [4]): 465.5 nm
- Luminescence activity Imax (%) (Gaussia luciferase): 100.0%
- Luminescence capacity 10 secs. (%) (Gaussia luciferase): 100.0%
- Luminescence activity Imax (%) (recombinant apoaequorin [5]): 100.0%
- Luminescence capacity 60 sec (%) (recombinant apoaequorin [5]): 100.0%

Molecule: et-coelenterazine [et-CTZ]
- Maximum emission wavelength λmax (nm) [1]: 454.0 nm
- Luminescence capacity 10 secs. (%) [1]: 39.5%
- Luminescence activity Imax (%) [1]: 21.1%
- Quality as luminescence substrate for Oplophorus luciferase [1]: relatively good luminescence substrates
- Maximum emission wavelength λmax (nm) (Renilla luciferase): 471.0 nm
- Luminescence activity Imax (%) (Renilla luciferase): 0.5%
- Luminescence capacity 10 secs. (%) (Renilla luciferase): 0.3%
- Half decay time sec. (recombinant apoaequorin [2]): 1.21 s
- Calcium standard curve with semi-synthetic aequorin (FIG. 4) (recombinant apoaequorin [3]): calcium standard curves can be prepared
- Emission spectra of semi-synthetic aequorins compared with known analogs (FIG. 3) (recombinant apoaequorin [4]): exhibit different emission spectra from those of known coelenterazine analogs
- Maximum emission wavelength λmax (nm) (recombinant apoaequorin [4]): 472.0 nm
- Luminescence activity Imax (%) (Gaussia luciferase): 0.9%
- Luminescence capacity 10 secs. (%) (Gaussia luciferase): 1.1%
- Ability to act as luminescence substrate for semi-synthetic aequorins (FIG. 1) (recombinant apoaequorin [5]): can be luminescence substrates for semi-synthetic aequorins
- Luminescence activity Imax (%) (recombinant apoaequorin [5]): 27.3%
- Luminescence capacity 60 sec (%) (recombinant apoaequorin [5]): 44.1%

Molecule: i-coelenterazine [i-CTZ, reference compound]
- Maximum emission wavelength λmax (nm) [1]: 450.0 nm
- Luminescence capacity 10 secs. (%) [1]: 53.8%
- Luminescence activity Imax (%) [1]: 32.3%
- Maximum emission wavelength λmax (nm) (Renilla luciferase): 473.0 nm
- Luminescence activity Imax (%) (Renilla luciferase): 0.2%
- Luminescence capacity 10 secs. (%) (Renilla luciferase): 0.3%
- Half decay time sec. (recombinant apoaequorin [2]): 11.42 s
- Maximum emission wavelength λmax (nm) (recombinant apoaequorin [4]): 472.0 nm
- Luminescence activity Imax (%) (Gaussia luciferase): 0.9%
- Luminescence capacity 10 secs. (%) (Gaussia luciferase): 1.3%
- Luminescence activity Imax (%) (recombinant apoaequorin [5]): 5.0%
- Luminescence capacity 60 sec (%) (recombinant apoaequorin [5]): 65.3%

Molecule: n-coelenterazine [n-CTZ, reference compound]
- Half decay time sec. (recombinant apoaequorin [2]): 4.71 s
- Maximum emission wavelength λmax (nm) (recombinant apoaequorin [4]): 467.0 nm
- Luminescence activity Imax (%) (recombinant apoaequorin [5]): 3.6%
- Luminescence capacity 60 sec (%) (recombinant apoaequorin [5]): 24.0%
